Experimental findings from PubChem BioAssay AID489040 (Sanford-Burnham Center for Chemical Genomics, 2010) are described below.

The source made the active and inactive calls.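 Rule for the calls: active = mean half-maximal activating concentration from the dose-response fit at or below a set limit; inactive = the rest.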 Bounds are passed on as bounds.

The target of the assay is CHO-XBP1 luciferase reporter, IRE1-XBP1 UPR activation. Briefly: XBP1 luciferase reporter activation – CHO-XBP1 cells, luminescence, counter-screen for apoptotic UPR arm activators, dose response (AID 489040).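 Note: reporter read after six hours of compound exposure.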 For orientation: A reporter such as luciferase makes a cellular process visible.
Consider `O=S(=O)(Nc1cccc2cccnc12)c1ccccc1`, for which the EC50 (usually the concentration at which the effect is half-maximal) is > 80 µM (inactive).

On to `CCc1ccc2nc(N(CCCN(C)C)C(=O)c3ccc(S(=O)(=O)N(C)C4CCCCC4)cc3)sc2c1`, for which the EC50 was > 80 µM (inactive).

With `Cn1nnnc1Sc1ncnc2scc(-c3ccc([N+](=O)[O-])cc3)c12`, the EC50 is > 80 µM (inactive).

Turning to `O=C(Nc1ccc(NC(=O)c2sc3ccccc3c2Cl)cc1Cl)c1ccco1`, the EC50 result was “inactive”.

For the compound `N#CC1(C#N)COC23CCCCC2C1(C#N)C(=N)O3` (configuration not stated), the EC50 is > 80 µM (inactive).

Take `COC(=O)C1=C(C)N(c2ccc(C)c(C)c2)/C(=C/c2cccs2)C1=O`: the EC50 is > 80 µM (inactive).

On to `CCCCOC(=O)/C=C\C(=O)NC(N)=O`, for which the EC50 is > 80 µM (inactive).

`O=C(/C(=N/N=C/c1ccc(O)c(O)c1)c1ccccc1)c1ccccc1`: the EC50 was > 80 µM (inactive).

For `CN=c1scc(-c2ccco2)n1/N=C/c1ccc(O)c(O)c1`, the EC50 was > 80 µM (inactive).

On to `CCc1nn(-c2cc(Oc3cccc4ccccc34)nc(-c3ccccc3)n2)c(N)c1C#N`, for which the EC50 result was “inactive”.

Consider `CS(=O)(=O)c1nc(-c2ccccc2)cc(-c2ccccc2)c1C#N`, for which the EC50 was > 80 µM (inactive).

Regarding `Oc1ccc(-c2csc(-c3ccccc3)n2)cc1O`, the EC50 is > 80 µM (inactive).

With `CCOC(=O)c1cnc(-n2nc(C)cc2C)nc1NC1CCCCC1`, the EC50 is > 80 µM (inactive).

On to `N#CC(C#N)=C1C=CC=CN1/C(=C\c1ccccc1)C(=O)c1cccs1`, for which the EC50 was > 80 µM (inactive).

For `O=C1Nc2ccc(Br)cc2/C1=N/N=C/C1=C(N2CCOCC2)C(=C\c2ccccc2)/CC1`, the EC50 was > 80 µM (inactive).

With `COc1ccc(/C=N/Nc2cc(C)nc(-n3nc(C)cc3C)n2)c(OC)c1`, the EC50 was > 80 µM (inactive).

As for `Oc1ccc(/C=N/Nc2ccnc3cc(Cl)ccc23)cc1O`, the EC50 was 8.71 µM.

In the case of `Oc1ccc(/C=N/N(c2ccccc2)c2ccccc2)cc1O`, the EC50 result was “inactive”.

As to `O=C(N/N=C/c1ccccn1)c1cc(-c2ccccc2)nc2ccccc12`, the EC50 was > 80 µM (inactive).

In the case of `CCn1c(-c2ccccc2)c(C(=O)CCl)c2ccccc21`, the EC50 was > 80 µM (inactive).

In the case of `COc1ccc(CNC[C@@H](CCCCN(C)Cc2ccc(OC)cc2)N2C[C@H](c3ccccc3)N(CCc3ccc(Cl)c(Cl)c3)C(=O)C2=O)cc1`, the EC50 was > 80 µM (inactive).

`Cc1ccc(-c2cc(-c3ccc(C)cc3)[n+](-c3ccccc3)c(-c3ccc(C)cc3)c2)cc1`: the EC50 is > 80 µM (inactive).

For the compound `COC(=O)c1ccc(COc2ccccc2/C=C(\C#N)C(=O)Nc2c(C)cccc2C)cc1`, the EC50 result was “inactive”.

As to `Cc1cc(C)nc(S/C=C/C(=O)c2ccccc2)n1`, the EC50 was > 80 µM (inactive).

Consider `Cc1nn(Cc2c(Cl)cccc2Cl)c(C)c1NC(=O)c1sc2ccccc2c1Cl`, for which the EC50 entry is “inactive”.

For the compound `COc1ccc(-c2cc(C(F)F)n3ncc(C(=O)n4ccnc4C)c3n2)cc1`, the EC50 was > 80 µM (inactive).

Consider `O=C(/C=C/c1ccc([N+](=O)[O-])cc1)/C=C/c1ccco1`, for which the EC50 is > 80 µM (inactive).

Take `N#Cc1ccc(N/N=C/c2cn(-c3ccccc3)nc2-c2ccccc2)c([N+](=O)[O-])c1`: the EC50 is > 80 µM (inactive).

Consider `CCOC(=O)N1CCN(Cc2ccc(O)c3ncccc23)CC1`, for which the EC50 was > 80 µM (inactive).

As to `COc1ccc(C2c3ccc4ccccc4c3Oc3ncn(CCCN(C)C)c(=N)c32)cc1` (configuration not stated), the EC50 is > 80 µM (inactive).

As to `O=[N+]([O-])c1ccc(Sc2nnnn2-c2ccccc2)nc1`, the EC50 is > 80 µM (inactive).

`COc1ccc(/C=C/C(=O)Oc2ccc(C)cc2)cc1`: the EC50 is > 80 µM (inactive).

For `CCOc1cc(/C=C2/C(=O)ON=C2C)ccc1OCc1ccccc1F`, the EC50 is > 80 µM (inactive).

As for `C/C(=N\NC(=O)c1ccccc1OCc1ccc(F)cc1)c1ccccn1`, the EC50 is > 80 µM (inactive).

`O=C1NC(=S)NC(=O)C1=Cc1ccc(Br)s1`: the EC50 is > 80 µM (inactive).

As for `C=CCn1c(O)c(N=NC(=S)Nc2ccccc2F)c2cc(S(=O)(=O)N3CCOCC3)ccc21`, the EC50 was > 80 µM (inactive).

On to `O=C(NC(=S)Nc1ccc(NC(=O)c2cccs2)cc1)c1cc2ccccc2o1`, for which the EC50 was > 80 µM (inactive).

As to `OCCNc1nc(Nc2ccc(Cl)c(Cl)c2)nc2ccccc12`, the EC50 was > 80 µM (inactive).

On to `Cc1nc([N+](=O)[O-])c(Br)n1CC(=O)c1ccc(Cl)cc1`, for which the EC50 is > 80 µM (inactive).

For `Cc1ccc(-c2nnc(-c3ccc(NC(=O)c4cccs4)cc3)o2)cc1`, the EC50 is 11.9 µM.

Consider `CCOc1cc(NC(=O)CCl)c(OCC)cc1NC(=O)CCl`, for which the EC50 was > 80 µM (inactive).

`COc1cc(C(=O)Sc2ccc(Cl)cc2)cc(OC)c1OC`: the EC50 is > 80 µM (inactive).

With `CC(C)c1cccc(-c2ccc3c(c2)S(=O)(=O)c2cccc(C(=O)NCc4ccccc4Cl)c2C3=O)c1`, the EC50 is 11.2 µM.

`Cc1nc([N+](=O)[O-])c(Br)n1CC(=O)c1ccc2ccccc2c1`: the EC50 is > 80 µM (inactive).

As for `S=C1SCN(Cc2ccccn2)CN1Cc1ccco1`, the EC50 is > 80 µM (inactive).

With `COc1ccc(NC(=O)c2sc3nc(N4CCOCC4)c4c(c3c2N)CC(C)(C)OC4)c(OC)c1`, the EC50 is > 80 µM (inactive).

Consider `Cc1cc(C(=O)CCl)c(C)n1CCc1ccc(Cl)cc1`, for which the EC50 is > 80 µM (inactive).

With `O=C(COc1ccc2ccccc2c1)N1CCN(Cc2c[nH]c3ccccc23)CC1`, the EC50 was > 80 µM (inactive).

`CCCCCC(=O)Nc1ccc(C(=O)N/N=C/c2ccc([N+](=O)[O-])cc2)cc1`: the EC50 was > 80 µM (inactive).

Take `O=C(N/N=C/c1ccc(O)c(O)c1)NC12CC3CC(CC(C3)C1)C2`: the EC50 was 14.2 µM.

For the compound `Cc1cccc(Nc2nc3c(S(=O)(=O)c4ccccc4)nnn3c3ccccc23)c1C`, the EC50 entry was “inactive”.

For `O=S(=O)(c1ccc(Cl)cc1)c1snnc1-c1ccccc1`, the EC50 is > 80 µM (inactive).

Turning to `CC(C)(C)C(=O)OCc1nc(-c2ccc(O)c(O)c2)cs1`, the EC50 was > 80 µM (inactive).

Regarding `COc1cc(CN2CCN(c3cc(C)ccc3C)CC2)ccc1O`, the EC50 was > 80 µM (inactive).

Turning to `COC(=O)c1c(NC(=O)CC2Nc3ccccc3NC2=O)sc(C)c1C` (configuration not stated), the EC50 was > 80 µM (inactive).

Take `CN1CSC(=S)N(C)C1`: the EC50 is > 80 µM (inactive).

Consider `Cc1cc(C)n(-c2nc(NC(C)(C)C)nc(NC(C)(C)C)n2)n1`, for which the EC50 is > 80 µM (inactive).

As for `Cc1cnc(NC(=O)c2cc(S(=O)(=O)N(C)C)ccc2N2CCCC2)s1`, the EC50 is 3.28 µM.

Consider `COc1cc(/C=C/C(=O)N2C(=O)c3cccc(N)c3C2=O)cc(OC)c1OC`, for which the EC50 was > 80 µM (inactive).

Consider `COc1cccc(-n2c(SCC(=O)N3CCc4ccccc43)nnc2-c2c[nH]c3ccccc23)c1`, for which the EC50 entry is “inactive”.

In the case of `Cc1cc(C(=O)CCl)c(C)n1-c1cccc(S(=O)(=O)N2CCOCC2)c1`, the EC50 is > 80 µM (inactive).

`COCCN1CSC(=S)N(Cc2ccco2)C1`: the EC50 was > 80 µM (inactive).

Consider `Cc1c(C(=O)c2cccc3ccccc23)c2cccc3c2n1[C@H](CN1CCOCC1)CO3`, for which the EC50 was > 80 µM (inactive).

For the compound `O=C(NCc1ccccc1Br)c1cccc2c1C(=O)c1ccc(-c3ccc(OC(F)(F)F)cc3)cc1S2(=O)=O`, the EC50 is 17 µM.

`O=C(CSc1nc2ccc(Nc3nc(N4CCOCC4)nc(N4CCOCC4)n3)cc2s1)Nc1ccccc1F`: the EC50 is 5.61 µM.

For the compound `CCSC1(SCC)N=C(N)C2(C#N)C(c3ccc(OC)c(OC)c3OC)C12C#N` (configuration not stated), the EC50 is > 80 µM (inactive).

Take `O=C1/C(=C/c2ccc(N3CCOCC3)o2)SC(=Nc2ccccc2)N1CCc1c[nH]c2ccccc12`: the EC50 is > 80 µM (inactive).

Regarding `O=C(N/N=C\c1cc2c(cc1Cl)OCO2)c1ccc(Br)s1`, the EC50 was > 80 µM (inactive).

With `CC(C)CNC(=O)c1coc(=O)c(Br)c1`, the EC50 is > 80 µM (inactive).

Consider `Oc1ccc2ccccc2c1N=Nc1ccccn1`, for which the EC50 is > 80 µM (inactive).

With `Cc1ccc(NC(=O)c2nc(S(=O)(=O)Cc3ccccc3C)ncc2Cl)cc1C`, the EC50 is > 80 µM (inactive).

For the compound `COc1ccc(C(=O)C(CN2CCOCC2)c2ccccc2)cc1` (configuration not stated), the EC50 was > 80 µM (inactive).

`CCSC1(SCC)N=C(N)C2(C#N)C(c3ccc(F)cc3)C12C#N` (configuration not stated): the EC50 is > 80 µM (inactive).

On to `O=c1c2ccccc2nc(/C=C/c2ccc([N+](=O)[O-])o2)n1-c1ccc(O)cc1`, for which the EC50 was > 80 µM (inactive).

With `CCOC(=O)C(=Cc1ccc(OCc2ccc([N+](=O)[O-])cc2)c(OC)c1)C(=O)OCC`, the EC50 is > 80 µM (inactive).

Consider `Cc1nc2ccccc2n1-c1nc(-c2ccco2)cc(C(F)(F)F)n1`, for which the EC50 was > 80 µM (inactive).

On to `O=C(CN1CCN(c2ccccc2F)CC1)c1ccc(O)c(O)c1`, for which the EC50 is > 80 µM (inactive).

For the compound `CCc1cc2c(=O)[nH]c(-c3ccccn3)nc2s1`, the EC50 is > 80 µM (inactive).

For the compound `COc1ccc(C(=O)N/N=C(\C)c2ccccn2)cc1OC`, the EC50 is > 80 µM (inactive).

In the case of `Oc1c(Cl)cc(CN2CCCCC2)c2cccnc12`, the EC50 is > 80 µM (inactive).

For `CCOC(=O)/C(=C\c1ccccc1)C(=O)c1cc(C(C)=O)c(Nc2ccccc2)s1`, the EC50 is > 80 µM (inactive).

With `COc1ccc(/C=C/c2ccc3cccc(O)c3n2)c(OC)c1OC`, the EC50 was > 80 µM (inactive).

In the case of `NC(N)=N/N=C/c1ccc(N(c2ccccc2)c2ccccc2)cc1`, the EC50 is > 80 µM (inactive).

`CCOc1ccccc1-n1c(SCC(=O)Nc2ccc(CC)cc2)nc2n[nH]c(C)c2c1=N`: the EC50 is 7.99 µM.

`COc1ccc(C2Nc3ccc4ccccc4c3-c3c2c(=O)oc2ccccc32)cc1` (configuration not stated): the EC50 was 9.62 µM.

For the compound `C/C(=N\Nc1ncnc2sc(C)c(C)c12)c1ccccn1`, the EC50 entry was “inactive”.

In the case of `CCCCC1CCC(C(=O)N(CCCC)c2c(N)n(CCCC)c(=O)[nH]c2=O)CC1` (configuration not stated), the EC50 was > 80 µM (inactive).
